# Where two headings read alike, the source gives them in different places.
# Tested on: androgen receptor (AR) in LNCaP and/or VCaP cells
# Assay: Androgen Receptor ELISA assay (AR degradation)
# Assay type: cell-based
# Summary of the method: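 VCaP cells grown ≥3 days, then treated 5 h with compound in media containing 1 nM R1881 (10× stock). Cells lysed and AR quantified by sandwich ELISA (mouse AR detection Ab, HRP anti-mouse, TMB). DC50 and Dmax derived from AR degradation.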
# [1] = degradation of AR ELISA in LNCaP and/or VCaP cells, Table 2C, read-out: DC50 Code*
# [2] = LNCaP and/or VCaP cells, 5 hours incubation, media with R1881, read-out: DC50 Code* (degradation of AR ELISA)
Structure (SMILES),DC50 [1],DC50 [2],also measured
"COCCN(CC1CCN(c2cnc(C(=O)N[C@H]3C(C)(C)[C@H](Oc4ccc(C#N)c(Cl)c4)C3(C)C)cn2)CC1)[C@H]1C[C@H](Oc2ccc3c(c2)C(=O)N(C2CCC(=O)NC2=O)C3=O)C1 (stereo partly shown) [compound 239, N-((1r,3r)-3-(3-chloro-4-cyanophenoxy)-2,2,4,4-tetramethylcyclobutyl)-5-(4-((((1r,3r)-3-((2-(2,6-dioxopiperidin-3-yl)-1,3-dioxoisoindolin-5-yl)oxy)cyclobutyl)(2-methoxyethyl)amino)methyl)piperidin-1-yl)pyrazine-2-carboxamide]",,,"DC50 (degradation of AR ELISA in LNCaP and/or VCaP cells, read-out: DC50 Code*): 1 to 10 nM"
"Cc1cc(O[C@H]2C(C)(C)[C@H](NC(=O)c3cnc(N4CCC(CN(C(C)C)[C@H]5C[C@H](Oc6cccc7c6CN(C6CCC(=O)NC6=O)C7=O)C5)CC4)cn3)C2(C)C)cc(C)c1C#N (mixture of isomers) [compound 185, rac-N-((1r,3r)-3-(4-cyano-3,5-dimethylphenoxy)-2,2,4,4-tetramethylcyclobutyl)-5-(4-((((1r,3r)-3-((2-(2,6-dioxopiperidin-3-yl)-1-oxoisoindolin-4-yl)oxy)cyclobutyl) (isopropyl)amino)methyl)piperidin-1-yl)pyrazine-2-carboxamide]",< 1 nM,,
"COc1cc(O[C@H]2C[C@H](N(CC3CCN(c4ncc(C(=O)NC5CC6(C5)CC(Oc5cc(C)c(C#N)c(C)c5)C6)cn4)CC3)C(C)C)C2)cc2c1C(=O)N(C1CCC(=O)NC1=O)C2=O (stereo partly shown) [Compound 1, N-(6-(4-cyano-3,5-dimethylphenoxy)spiro [3.3]heptan-2-yl)-2-(4-((((1r,3r)-3-((2-(2,6-dioxopiperidin-3-yl)-7-methoxy-1,3-dioxoisoindolin-5-yl)oxy)cyclobutyl) (isopropyl)amino)methyl)piperidin-1-yl)pyrimidine-5-carboxamide]",,1 to 10 nM,
"COc1cc(O[C@H]2C[C@H](N(CC3CCN(c4ncc(C(=O)NC5CC6CC(Oc7cc(C)c(C#N)c(C)c7)CC6C5)cn4)CC3)C(C)C)C2)cc2c1C(=O)N(C1CCC(=O)NC1=O)C2=O (stereo partly shown) [Compound 2, N-(5-(4-cyano-3,5-dimethylphenoxy)octahydropentalen-2-yl)-2-(4-((((1r,3r)-3-((2-(2,6-dioxopiperidin-3-yl)-7-methoxy-1,3-dioxoisoindolin-5-yl)oxy)cyclobutyl) (isopropyl)amino)methyl)piperidin-1-yl)pyrimidine-5-carboxamide]",,> 100 nM,
"CC(=O)N(CC1CCN(c2cnc(C(=O)N[C@H]3CC[C@H](Oc4cc(C)c(C#N)c(C)c4)CC3)cn2)CC1)[C@H]1C[C@H](Oc2ccc3c(c2)C(=O)N(C2CCC(=O)NC2=O)C3=O)C1 (stereo partly shown) [Compound 50, N-((1r,4r)-4-(4-cyano-3,5-dimethylphenoxy)cyclohexyl)-5-(4-((N-((1r,3r)-3-((2-(2,6-dioxopiperidin-3-yl)-1,3-dioxoisoindolin-5-yl)oxy)cyclobutyl)acetamido)methyl)piperidin-1-yl)pyrazine-2-carboxamide]",,< 1 nM,

# Second part, led by results:
DC50 [1],DC50 [2],Structure (SMILES),also measured
< 1 nM,,"Cc1cc(O[C@H]2C(C)(C)[C@H](NC(=O)c3cnc(N4CCC5(CC4)CN([C@H]4C[C@H](Oc6ccc7c(c6)C(=O)N(C6CCC(=O)NC6=O)C7=O)C4)CCO5)cn3)C2(C)C)cc(C)c1C#N (mixture of isomers) [compound 236, rac-N-((1r,3r)-3-(4-cyano-3,5-dimethylphenoxy)-2,2,4,4-tetramethylcyclobutyl)-5-(4-((1r,3r)-3-((2-(2,6-dioxopiperidin-3-yl)-1,3-dioxoisoindolin-5-yl)oxy)cyclobutyl)-1-oxa-4,9-diazaspiro[5.5]undecan-9-yl)pyrazine-2-carboxamide]",
< 1 nM,,"CCN(CC1CCN(c2cnc(C(=O)N[C@H]3C(C)(C)[C@H](Oc4cc(C)c(C#N)c(C)c4)C3(C)C)cn2)CC1)[C@H]1C[C@H](Oc2ccc3c(c2)C(=O)N(C2CCC(=O)NC2=O)C3=O)C1 (stereo partly shown) [compound 206, N-((1r,3r)-3-(4-cyano-3,5-dimethylphenoxy)-2,2,4,4-tetramethylcyclobutyl)-5-(4-((((1r,3r)-3-((2-(2,6-dioxopiperidin-3-yl)-1,3-dioxoisoindolin-5-yl)oxy)cyclobutyl) (ethyl)amino)methyl)piperidin-1-yl)pyrazine-2-carboxamide]",

# Reference: US20260053932A1, “COMPOUNDS AND METHODS FOR THE TARGETED DEGRADATION OF ANDROGEN RECEPTOR AND ASSOCIATED METHODS OF USE” (Arvinas Operations, Inc., priority 2020, published 2026)
